As a reminder, the IC50 is the point on the concentration scale where inhibition reaches its midpoint.

System in the first data set: not listed separately
The data set can be described thus: Tolerability after oral administration. It counts as in vivo. To be noted: oral administration of 10 mg/kg.
On to `CC#CCn1c(N(C)CCN)nc2cnn(Cc3nc(C)c4ccccc4n3)c(=O)c21` [Example 1, 2-[N-(2-aminoethyl)-N-methyl-amino]-3-(2-butyn-1-yl)-5-[(4-methyl-quinazolin-2-yl)methyl]-3,5-dihydro-imidazo[4,5-d]pyridazin-4-one], for which the “toxic side effects / tolerability” value is listed as “no toxic side effects”.

The target in another data set is T1, DPP-IV (Homo sapiens, UniProt P27487).
T1 construct: an extract of the human colon carcinoma cell line Caco-2 is used as the DPP IV source; endogenous in cells; host or cells: Caco-2 (human colon carcinoma), differentiated to induce DPP-IV expression; Nonidet-P40 solubilised extract
T1 sequence (P27487 whole entry): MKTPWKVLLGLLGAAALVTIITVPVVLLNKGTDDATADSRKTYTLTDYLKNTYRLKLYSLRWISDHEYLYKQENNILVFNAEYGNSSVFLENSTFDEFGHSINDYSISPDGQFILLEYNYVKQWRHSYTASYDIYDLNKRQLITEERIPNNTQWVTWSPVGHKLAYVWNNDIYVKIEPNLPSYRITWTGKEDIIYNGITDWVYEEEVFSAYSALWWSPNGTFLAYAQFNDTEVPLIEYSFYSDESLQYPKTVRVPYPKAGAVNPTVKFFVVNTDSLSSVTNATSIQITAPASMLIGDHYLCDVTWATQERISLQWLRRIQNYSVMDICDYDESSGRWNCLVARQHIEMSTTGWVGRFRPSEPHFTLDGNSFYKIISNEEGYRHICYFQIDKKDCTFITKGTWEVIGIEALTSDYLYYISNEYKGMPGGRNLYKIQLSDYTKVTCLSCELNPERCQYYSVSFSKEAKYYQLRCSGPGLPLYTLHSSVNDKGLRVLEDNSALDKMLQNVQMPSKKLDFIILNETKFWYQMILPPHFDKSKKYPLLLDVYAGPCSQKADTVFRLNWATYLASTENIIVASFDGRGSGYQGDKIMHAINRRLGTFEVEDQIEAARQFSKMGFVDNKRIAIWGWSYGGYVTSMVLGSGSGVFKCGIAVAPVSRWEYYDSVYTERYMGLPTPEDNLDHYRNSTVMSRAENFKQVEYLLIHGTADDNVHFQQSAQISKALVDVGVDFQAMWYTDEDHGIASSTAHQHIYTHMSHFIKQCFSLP
The data set can be described thus: DPP-IV assay with extract of the human colon carcinoma cell line Caco-2 as DPP IV source, AFC substrate, fluorescence. The format is biochemical. As to conditions: solubilised Caco-2 protein, substrate 100 μM, 60 minutes at ambient temperature, 11-point curves; read-out: DPP IV inhibition IC50. As to the method: The differentiation of the cells in order to induce the DPP-IV expression was carried out in accordance with the description by Reiher et al. in an article entitled “Increased expression of intestinal cell line Caco-2”, which appeared in Proc. Natl. Acad. Sci. Vol. 90, pp. 5757-5761 (1993).
The cell extract was obtained from cells solubilised in a buffer (10 mM Tris HCl, 0.15 M NaCl, 0.04 t.i.u. aprotinin, 0.5% Nonidet-P40, pH 8.0) by centrifugation at 35,000 g for 30 minutes at 4° C. (to remove cell debris).
The DPP-IV assay was carried out as follows:
50 μl of substrate solution (AFC; AFC is amido-4-trifluoromethylcoumarin), final concentration 100 μM, were placed in black microtitre plates. 20 μl of assay buffer (final concentrations 50 mM Tris HCl, pH 7.8, 50 mM NaCl, 1% DMSO) was pipetted in. The reaction was started by the addition of 30 μl of solubilised Caco-2 protein (final concentration 0.14 μg of protein per well). The test substances under investigation were typically added prediluted to 20 μl, while the volume of assay buffer was then reduced accordingly. The reaction was carried out at ambient temperature, the incubation period was 60 minutes. Then the fluorescence was measured in a Victor 1420 Multilabel Counter, with the excitation wavelength at 405 nm and the emission wavelength at 535 nm. Dummy values (corresponding to 0% activity) were obtained in mixtures with no Caco-2 protein (volume replaced by assay buffer), control values (corresponding to 100% activity) were obtained in mixtures without any added substance. The potencies of the test substances in question, expressed as IC50 values, were calculated from dosage/activity curves consisting of 11 measured points in each case.
With `CC#CCn1c(N(C)C[C@H](C)N)nc2cnn(Cc3ccccc3C#N)c(=O)c21` [Example 2, (S)-2-[N-(2-amino-propyl)-N-methyl-amino]-3-(2-butyn-1-yl)-5-(2-cyanophenylmethyl)-3,5-dihydro-imidazo[4,5-d]pyridazin-4-one], the IC50 came out at 76 nM.

In the case of `CC#CCn1c(N(C)CCN)nc2ccn(Cc3nc(C)cc4ccccc34)c(=O)c21` [1(2), 2-[N-(2-aminoethyl)-N-methyl-amino]-3-(2-butyn-1-yl)-5-[(3-methyl-isoquinolin-1-yl)methyl]-3,5-dihydro-imidazo[4,5-c]pyridin-4-one], the IC50 is 34 nM.

For the compound `CC#CCn1c(N(C)CC(C)(C)N)nc2cnn(Cc3ccccc3C#N)c(=O)c21` [2(1), 2-[N-(2-amino-2-methyl-propyl)-N-methyl-amino]-3-(2-butyn-1-yl)-5-(2-cyanophenyl-methyl)-3,5-dihydro-imidazo[4,5-d]pyridazin-4-one], the IC50 was 336 nM.

On to `CC#CCn1c(N(C)CCN)nc2cnn(Cc3nc(C)c4ccccc4n3)c(=O)c21` [Example 1, 2-[N-(2-aminoethyl)-N-methyl-amino]-3-(2-butyn-1-yl)-5-[(4-methyl-quinazolin-2-yl)methyl]-3,5-dihydro-imidazo[4,5-d]pyridazin-4-one], for which the IC50 was 1 nM.

For `CC#CCn1c(N(C)C[C@H](C)N)nc2cnn(Cc3nc(C)c4ccccc4n3)c(=O)c21` [Example 3, (S)-2-[N-(2-aminopropyl)-N-methyl-amino]-3-(2-butyn-1-yl)-5-[(4-methyl-quinazolin-2-yl)methyl]-3,5-dihydro-imidazo[4,5-d]pyridazin-4-one], the IC50 was found to be 2 nM.

Turning to `CC#CCn1c(N(C)CCN)nc2cnn(Cc3nc(C)cc4ccccc34)c(=O)c21` [1(1), 2-[N-(2-aminoethyl)-N-methyl-amino]-3-(2-butyn-1-yl)-5-[(3-methyl-isoquinolin-1-yl)methyl]-3,5-dihydro-imidazo[4,5-d]pyridazin-4-one], the IC50 was 10 nM.

The values are drawn from patent US7476671B2, “2-amino-imidazo[4,5-d]pyridazin-4-ones, their preparation and their use as pharmaceutical compositions” (Boehringer Ingelheim International GmbH, priority 2004, dated 2009).
